# Measured values taken from PubChem BioAssay (NCI).
#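 Briefly, cells in 96-well plates were exposed to five compound concentrations for 48 h, and endpoints were estimated by linear interpolation. Abbreviation: GI50, concentration required for 50% inhibition of growth. TGI: total growth inhibition.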
# What was measured:
# Assay in all cases: NCI tumour cell line growth inhibition, 48 h
# IGROV1 ovarian = test system: IGROV1 ovarian
# PC-3 prostate = test system: PC-3 prostate
# HCT-116 colon = test system: HCT-116 colon
# HS 578T breast = test system: HS 578T breast
# NCI-H522 lung = test system: NCI-H522 lung
# DU-145 prostate = test system: DU-145 prostate
# UO-31 renal = test system: UO-31 renal
# SF-539 CNS = test system: SF-539 CNS
# MOLT-4 leukemia = test system: MOLT-4 leukemia
# SNB-19 CNS = test system: SNB-19 CNS
# A549 NSCLC = test system: A549 NSCLC
# SK-OV-3 ovarian = test system: SK-OV-3 ovarian
# T-47D breast = test system: T-47D breast
# SN12C renal = test system: SN12C renal
# COLO 205 colon = test system: COLO 205 colon
# U251 CNS = test system: U251 CNS
# CAKI-1 renal = test system: CAKI-1 renal
# ACHN renal = test system: ACHN renal
# SW-620 colon = test system: SW-620 colon
# 786-0 renal = test system: 786-0 renal
# NCI-H23 lung = test system: NCI-H23 lung
# HCT-15 colon = test system: HCT-15 colon
# MDA-MB-435 = test system: MDA-MB-435
# SK-MEL-5 melanoma = test system: SK-MEL-5 melanoma
# MDA-MB-468 breast = test system: MDA-MB-468 breast
# NCI/ADR-RES ovarian = test system: NCI/ADR-RES ovarian
# RPMI-8226 leukemia = test system: RPMI-8226 leukemia
# OVCAR-5 ovarian = test system: OVCAR-5 ovarian
# NCI-H460 lung = test system: NCI-H460 lung
# BT-549 breast = test system: BT-549 breast
# SK-MEL-28 melanoma = test system: SK-MEL-28 melanoma
# HOP-92 NSCLC = test system: HOP-92 NSCLC
# CCRF-CEM leukemia = test system: CCRF-CEM leukemia
# SNB-75 CNS = test system: SNB-75 CNS
# K-562 leukemia = test system: K-562 leukemia
# LOX IMVI melanoma = test system: LOX IMVI melanoma
# MDA-MB-231 breast = test system: MDA-MB-231 breast
# MCF7 breast = test system: MCF7 breast
# EKVX NSCLC = test system: EKVX NSCLC
# SK-MEL-2 melanoma = test system: SK-MEL-2 melanoma
# HOP-62 NSCLC = test system: HOP-62 NSCLC
# SF-295 CNS = test system: SF-295 CNS
# HL-60(TB) leukemia = test system: HL-60(TB) leukemia
# SR leukemia = test system: SR leukemia
# NCI-H226 lung = test system: NCI-H226 lung
# HT29 colon = test system: HT29 colon
# HCC-2998 colon = test system: HCC-2998 colon
# OVCAR-3 ovarian = test system: OVCAR-3 ovarian
# UACC-62 melanoma = test system: UACC-62 melanoma
# OVCAR-8 ovarian = test system: OVCAR-8 ovarian
# MALME-3M melanoma = test system: MALME-3M melanoma
# OVCAR-4 ovarian = test system: OVCAR-4 ovarian
# SF-268 CNS = test system: SF-268 CNS
# M14 melanoma = test system: M14 melanoma
# KM12 colon = test system: KM12 colon
# A498 renal = test system: A498 renal
# TK-10 renal = test system: TK-10 renal
# RXF 393 renal = test system: RXF 393 renal
# UACC-257 melanoma = test system: UACC-257 melanoma
smiles,measurement,setting,value
C=C1CCC2C3(C)COC(c4ccccc4F)OC3CCC2(C)C1CC(O)C1=CCOC1=O (stereo not drawn),GI50,IGROV1 ovarian,24.2 µM
same,TGI,IGROV1 ovarian,69.1 µM
same,GI50,PC-3 prostate,18.2 µM
same,TGI,PC-3 prostate,> 100 µM
same,GI50,HCT-116 colon,4.3 µM
same,TGI,HCT-116 colon,17.2 µM
same,GI50,HS 578T breast,28.1 µM
same,TGI,HS 578T breast,> 100 µM
same,GI50,NCI-H522 lung,6 µM
same,TGI,NCI-H522 lung,21.4 µM
same,GI50,DU-145 prostate,28.9 µM
same,TGI,DU-145 prostate,> 100 µM
same,GI50,UO-31 renal,13.4 µM
same,TGI,UO-31 renal,54.1 µM
same,GI50,SF-539 CNS,14.9 µM
same,TGI,SF-539 CNS,28.3 µM
same,GI50,MOLT-4 leukemia,40.8 µM
same,TGI,MOLT-4 leukemia,> 100 µM
same,GI50,SNB-19 CNS,33.1 µM
same,TGI,SNB-19 CNS,> 100 µM
same,GI50,A549 NSCLC,24.4 µM
same,TGI,A549 NSCLC,> 100 µM
same,GI50,SK-OV-3 ovarian,37.1 µM
same,TGI,SK-OV-3 ovarian,> 100 µM
same,GI50,T-47D breast,10.7 µM
same,TGI,T-47D breast,> 100 µM
same,GI50,SN12C renal,6.14 µM
same,TGI,SN12C renal,92.5 µM
same,GI50,COLO 205 colon,19.3 µM
same,TGI,COLO 205 colon,55.9 µM
same,GI50,U251 CNS,11.9 µM
same,TGI,U251 CNS,24.6 µM
same,GI50,CAKI-1 renal,25 µM
same,TGI,CAKI-1 renal,> 100 µM
same,GI50,ACHN renal,13.4 µM
same,TGI,ACHN renal,26.2 µM
same,GI50,SW-620 colon,2.1 µM
same,TGI,SW-620 colon,11.4 µM
same,GI50,786-0 renal,16.7 µM
same,TGI,786-0 renal,32.8 µM
same,GI50,NCI-H23 lung,23.6 µM
same,TGI,NCI-H23 lung,73.9 µM
same,GI50,HCT-15 colon,9.51 µM
same,TGI,HCT-15 colon,33.5 µM
same,GI50,MDA-MB-435,12.6 µM
same,TGI,MDA-MB-435,46.9 µM
same,GI50,SK-MEL-5 melanoma,17.1 µM
same,TGI,SK-MEL-5 melanoma,39.4 µM
same,GI50,MDA-MB-468 breast,4.71 µM
same,TGI,MDA-MB-468 breast,19.1 µM
same,GI50,NCI/ADR-RES ovarian,8.93 µM
same,TGI,NCI/ADR-RES ovarian,25.3 µM
same,GI50,RPMI-8226 leukemia,6.73 µM
same,TGI,RPMI-8226 leukemia,> 100 µM
same,GI50,OVCAR-5 ovarian,16.3 µM
same,TGI,OVCAR-5 ovarian,50.8 µM
same,GI50,NCI-H460 lung,25.4 µM
same,TGI,NCI-H460 lung,> 100 µM
same,GI50,BT-549 breast,5.9 µM
same,TGI,BT-549 breast,22 µM
same,GI50,SK-MEL-28 melanoma,26.4 µM
same,TGI,SK-MEL-28 melanoma,> 100 µM
same,GI50,HOP-92 NSCLC,18.1 µM
same,TGI,HOP-92 NSCLC,45.4 µM
same,GI50,CCRF-CEM leukemia,3.08 µM
same,TGI,CCRF-CEM leukemia,> 100 µM
same,GI50,SNB-75 CNS,6.89 µM
same,TGI,SNB-75 CNS,26.1 µM
same,GI50,K-562 leukemia,5.7 µM
same,TGI,K-562 leukemia,> 100 µM
same,GI50,LOX IMVI melanoma,11.1 µM
same,TGI,LOX IMVI melanoma,23.1 µM
same,GI50,MDA-MB-231 breast,16.9 µM
same,TGI,MDA-MB-231 breast,35.6 µM
same,GI50,MCF7 breast,3.48 µM
same,TGI,MCF7 breast,20.2 µM
same,GI50,EKVX NSCLC,87.7 µM
same,TGI,EKVX NSCLC,> 100 µM
same,GI50,SK-MEL-2 melanoma,14.6 µM
same,TGI,SK-MEL-2 melanoma,29.1 µM
same,GI50,HOP-62 NSCLC,23 µM
same,TGI,HOP-62 NSCLC,42.4 µM
same,GI50,SF-295 CNS,15.9 µM
same,TGI,SF-295 CNS,44.9 µM
same,GI50,HL-60(TB) leukemia,5.66 µM
same,TGI,HL-60(TB) leukemia,> 100 µM
same,GI50,SR leukemia,57.1 µM
same,TGI,SR leukemia,> 100 µM
same,GI50,NCI-H226 lung,5.74 µM
same,TGI,NCI-H226 lung,22.7 µM
same,GI50,HT29 colon,13.3 µM
same,TGI,HT29 colon,52.6 µM
same,GI50,HCC-2998 colon,25.3 µM
same,TGI,HCC-2998 colon,> 100 µM
same,GI50,OVCAR-3 ovarian,9.68 µM
same,TGI,OVCAR-3 ovarian,26.6 µM
same,GI50,UACC-62 melanoma,15.9 µM
same,TGI,UACC-62 melanoma,46 µM
same,GI50,OVCAR-8 ovarian,4.86 µM
same,TGI,OVCAR-8 ovarian,19.2 µM
same,GI50,MALME-3M melanoma,22.5 µM
same,TGI,MALME-3M melanoma,68.4 µM
same,GI50,OVCAR-4 ovarian,13.8 µM
same,TGI,OVCAR-4 ovarian,53.9 µM
same,GI50,SF-268 CNS,28.4 µM
same,TGI,SF-268 CNS,> 100 µM
same,GI50,M14 melanoma,30 µM
same,TGI,M14 melanoma,> 100 µM
same,GI50,KM12 colon,17.7 µM
same,TGI,KM12 colon,> 100 µM
same,GI50,A498 renal,23.5 µM
same,TGI,A498 renal,77.2 µM
same,GI50,TK-10 renal,34.6 µM
same,TGI,TK-10 renal,> 100 µM
same,GI50,RXF 393 renal,14.1 µM
same,TGI,RXF 393 renal,30.9 µM
same,GI50,UACC-257 melanoma,20 µM
same,TGI,UACC-257 melanoma,> 100 µM
